Reference: patent publication US9186360B2, “Treatment of respiratory disorders using TRPA1 antagonists” (GLENMARK PHARMACEUTICALS S.A., priority 2011, dated 2015)

What was measured:
human TRPV3 = human TRPV3 (Homo sapiens (Human), UniProt Q8NET8); assay: Radiometric calcium selectivity assay, CHO cells expressing human TRPV3 (2-aminoethoxydiphenyl borate); format: cell-based; settings: read-out: IC50 values hTRPV3
human TRPA1 = human TRPA1 (Homo sapiens (Human), UniProt O75762); assay: 45Calcium uptake assay, AITC induced, human TRPA1 expressing CHO cells; format: cell-based; settings: AITC 30 micromolar, read-out: IC50 values hTRPA1
Summary of the method: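 CHO cells expressing human TRPA1 preincubated 10 min with compound (0.5% DMSO), then 30 µM AITC plus 5 µCi/ml 45Ca2+ for 3 min at 25 °C. Lysate radioactivity counted by scintillation. IC50 by nonlinear regression of % maximal uptake without antagonist.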

human TRPV1 = human TRPV1 (Homo sapiens (Human), UniProt Q8NER1); assay: Radiometric calcium selectivity assay, CHO cells expressing human TRPV1 (capsaicin); format: cell-based; settings: read-out: IC50 values hTRPV1
human TRPV4 = human TRPV4 (Homo sapiens (Human), UniProt Q9HBA0); assay: Radiometric calcium selectivity assay, CHO cells expressing human TRPV4 (4α-phorbol 12,13-didecanoate); format: cell-based; settings: read-out: IC50 values hTRPV4
human TRPM8 = human TRPM8 (Homo sapiens (Human), UniProt Q7Z2W7); assay: Radiometric calcium selectivity assay, CHO cells expressing human TRPM8 (icilin); format: cell-based; settings: read-out: IC50 values hTRPM8
[1] = tested on: ovalbumin sensitized Brown Norway rats; assay: Ovalbumin asthma model in Brown Norway rats (Example 5); format: in vivo, rat; settings: i.t. 1 hour before ovalbumin challenge, BAL 48 hours; dose dependent
Description: Male BN rats were sensitized subcutaneously (s.c.) on day 0, 14 and 21 with 0.5 ml solution containing 20 μg/ml ovalbumin (Ova) and 40 mg/ml aluminum hydroxide. Simultaneously the animals were injected intraperitoneally (i.p.) with 0.25 ml of B. pertussis vaccine/rat containing 4×10^8 heat killed bacilli/ml. The rats were challenged with 1% aerosolized ovalbumin on Day 28 following sensitization.
Test compounds were triturated and volume was made up with Normal Saline (0.9% NaCl). Animals were administered TRPA1 antagonists (Compound 52, Compound 73, Compound 84, Compound 90 and Compound 92) intra-tracheally (i.t.) 1 hour and fluticasone 24 hours and 1 hour before ovalbumin challenge. Animals were sacrificed 48 hours after ovalbumin challenge.
BAL was performed at approximately 48 hours after ovalbumin challenge and the pooled BAL was used to determined total number of cells and for cell differential study (according to Example 2).
The total number of eosinophils in each BAL sample and % inhibition of eosinophils were calculated according to Example 3
The data was statistically evaluated by ANOVA followed by Dunnett's multiple comparisons test.

[2] = tested on: LPS exposed Brown Norway rats; assay: Aerosolized LPS induced airway inflammation in Brown Norway rats; format: in vivo, rat; settings: i.t. 4 hours before LPS; Compound 52 1000 μg/animal, Compound 90 2000 μg/animal; BAL 12 hours
Description: Male Brown Norway rats were exposed to aerosolized Lipopolysaccharide (LPS) (100 μg/ml) for 40 minutes at 1.8 bar pressure using a nebulizer (Hudson Respiratory Care Incorporated), phosphate buffered saline (PBS) control animals were exposed to hyrdroxylamine hydrochloride in PBS.
Test compounds were triturated and volume was made up with either distilled water or normal saline (0.9% NaCl). Animals were administered Compound 52 and Compound 90 intra-treacheally 4 hours before LPS aerosolized exposure. Animals were sacrificed 12 hours after aerosolized exposure. The control group of animals received only 2 mg Lactose/100 μl distilled water/animal intratracheally or normal saline 100 μl/animal intratracheally.
Broncho alveolar lavage (BAL) was performed at approximately 12 hours after aerosolized exposure. Animals were euthanized with an overdose of urethane, trachea was exposed and BAL was performed 5 times using 2 ml PBS. All aspirates of BAL were pooled and total number of cells determined using a hemocytometer. BALFwas centrifuged. […]
The total number of neutrophils in each BAL sample was calculated using the formula:
[formula] Percent inhibition of neutrophils was calculated using the following formula:
[formula] Data was statistically evaluated by ANOVA followed by Dunnett's multiple comparisons test. […]

Chain of human TRPV4 (Q9HBA0 whole entry): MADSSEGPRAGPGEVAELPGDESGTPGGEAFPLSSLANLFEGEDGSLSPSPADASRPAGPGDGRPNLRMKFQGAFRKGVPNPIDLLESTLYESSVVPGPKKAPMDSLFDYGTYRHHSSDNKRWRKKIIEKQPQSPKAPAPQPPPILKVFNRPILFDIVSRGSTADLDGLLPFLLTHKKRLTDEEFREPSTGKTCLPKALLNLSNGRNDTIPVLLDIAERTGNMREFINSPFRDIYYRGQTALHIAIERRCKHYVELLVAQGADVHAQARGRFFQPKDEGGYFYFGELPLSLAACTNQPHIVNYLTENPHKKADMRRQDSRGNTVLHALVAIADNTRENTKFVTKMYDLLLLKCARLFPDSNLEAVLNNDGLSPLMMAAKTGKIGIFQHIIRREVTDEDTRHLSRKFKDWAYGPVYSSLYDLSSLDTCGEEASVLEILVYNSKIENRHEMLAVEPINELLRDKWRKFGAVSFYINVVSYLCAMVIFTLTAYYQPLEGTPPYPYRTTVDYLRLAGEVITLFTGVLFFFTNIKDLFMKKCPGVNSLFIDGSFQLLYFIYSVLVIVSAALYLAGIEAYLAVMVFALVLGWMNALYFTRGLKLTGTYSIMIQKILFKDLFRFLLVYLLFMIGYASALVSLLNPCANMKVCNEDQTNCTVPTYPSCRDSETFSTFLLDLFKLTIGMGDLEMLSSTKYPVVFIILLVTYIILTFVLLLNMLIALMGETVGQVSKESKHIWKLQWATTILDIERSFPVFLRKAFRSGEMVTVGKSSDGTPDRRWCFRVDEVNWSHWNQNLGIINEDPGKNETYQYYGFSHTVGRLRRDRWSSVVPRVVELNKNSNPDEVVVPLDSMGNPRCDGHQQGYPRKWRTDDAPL
Chain of human TRPA1 (O75762 whole entry): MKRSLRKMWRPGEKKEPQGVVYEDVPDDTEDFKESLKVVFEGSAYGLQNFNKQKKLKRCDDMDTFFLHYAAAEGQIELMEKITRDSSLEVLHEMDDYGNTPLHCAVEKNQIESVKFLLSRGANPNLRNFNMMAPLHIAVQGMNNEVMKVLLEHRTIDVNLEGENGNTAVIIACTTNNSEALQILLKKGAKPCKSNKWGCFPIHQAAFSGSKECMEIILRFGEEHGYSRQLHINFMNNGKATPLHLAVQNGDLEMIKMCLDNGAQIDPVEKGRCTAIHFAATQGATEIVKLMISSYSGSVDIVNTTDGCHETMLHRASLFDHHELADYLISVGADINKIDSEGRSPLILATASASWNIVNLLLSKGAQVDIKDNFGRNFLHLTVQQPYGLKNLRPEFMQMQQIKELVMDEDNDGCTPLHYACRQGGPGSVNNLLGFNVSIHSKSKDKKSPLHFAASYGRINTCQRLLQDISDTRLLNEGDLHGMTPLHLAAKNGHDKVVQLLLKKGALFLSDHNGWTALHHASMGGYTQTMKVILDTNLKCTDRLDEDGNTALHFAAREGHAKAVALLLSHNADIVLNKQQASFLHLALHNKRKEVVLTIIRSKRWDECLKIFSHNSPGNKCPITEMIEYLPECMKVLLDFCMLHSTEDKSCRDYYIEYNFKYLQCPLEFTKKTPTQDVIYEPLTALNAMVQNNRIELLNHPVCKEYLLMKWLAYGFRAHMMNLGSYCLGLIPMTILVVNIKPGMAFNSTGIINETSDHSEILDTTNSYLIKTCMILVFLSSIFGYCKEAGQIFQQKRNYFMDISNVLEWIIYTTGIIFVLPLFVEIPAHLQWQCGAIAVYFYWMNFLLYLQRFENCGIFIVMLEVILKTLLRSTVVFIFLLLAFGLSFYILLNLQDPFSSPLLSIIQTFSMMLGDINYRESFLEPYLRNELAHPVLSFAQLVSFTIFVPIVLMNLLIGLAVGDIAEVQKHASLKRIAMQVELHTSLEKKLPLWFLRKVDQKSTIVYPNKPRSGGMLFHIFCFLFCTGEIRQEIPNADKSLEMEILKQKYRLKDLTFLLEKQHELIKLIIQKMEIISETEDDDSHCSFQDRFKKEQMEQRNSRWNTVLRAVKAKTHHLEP
Chain of human TRPM8 (Q7Z2W7 whole entry): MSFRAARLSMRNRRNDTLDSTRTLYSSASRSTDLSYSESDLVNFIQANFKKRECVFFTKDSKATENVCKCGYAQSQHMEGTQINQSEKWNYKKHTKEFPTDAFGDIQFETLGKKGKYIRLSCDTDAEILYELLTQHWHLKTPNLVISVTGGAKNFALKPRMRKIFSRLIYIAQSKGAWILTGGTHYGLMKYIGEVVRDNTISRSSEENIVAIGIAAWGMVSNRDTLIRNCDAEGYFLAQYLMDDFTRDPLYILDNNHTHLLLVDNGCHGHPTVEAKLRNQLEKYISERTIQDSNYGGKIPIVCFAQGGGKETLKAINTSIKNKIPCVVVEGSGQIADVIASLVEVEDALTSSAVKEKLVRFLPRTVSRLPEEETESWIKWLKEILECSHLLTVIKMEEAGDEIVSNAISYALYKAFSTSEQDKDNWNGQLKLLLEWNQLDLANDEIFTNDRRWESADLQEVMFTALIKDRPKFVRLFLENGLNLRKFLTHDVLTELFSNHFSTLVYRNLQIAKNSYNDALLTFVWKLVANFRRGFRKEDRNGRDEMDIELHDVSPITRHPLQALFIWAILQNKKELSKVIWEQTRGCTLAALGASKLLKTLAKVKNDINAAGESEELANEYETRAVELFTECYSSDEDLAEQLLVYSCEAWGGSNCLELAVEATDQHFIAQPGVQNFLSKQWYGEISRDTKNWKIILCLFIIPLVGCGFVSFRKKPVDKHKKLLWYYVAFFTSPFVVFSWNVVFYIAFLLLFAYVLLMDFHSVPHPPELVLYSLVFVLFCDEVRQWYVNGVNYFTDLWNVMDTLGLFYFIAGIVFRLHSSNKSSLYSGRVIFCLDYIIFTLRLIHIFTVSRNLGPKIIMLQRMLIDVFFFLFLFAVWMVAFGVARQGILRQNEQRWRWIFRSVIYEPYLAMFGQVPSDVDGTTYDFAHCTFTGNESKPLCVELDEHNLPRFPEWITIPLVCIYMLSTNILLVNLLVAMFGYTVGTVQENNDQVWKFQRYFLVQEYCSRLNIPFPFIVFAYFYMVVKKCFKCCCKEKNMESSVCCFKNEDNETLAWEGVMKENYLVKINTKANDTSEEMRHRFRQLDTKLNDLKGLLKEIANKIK
Chain of human TRPV1 (Q8NER1 whole entry): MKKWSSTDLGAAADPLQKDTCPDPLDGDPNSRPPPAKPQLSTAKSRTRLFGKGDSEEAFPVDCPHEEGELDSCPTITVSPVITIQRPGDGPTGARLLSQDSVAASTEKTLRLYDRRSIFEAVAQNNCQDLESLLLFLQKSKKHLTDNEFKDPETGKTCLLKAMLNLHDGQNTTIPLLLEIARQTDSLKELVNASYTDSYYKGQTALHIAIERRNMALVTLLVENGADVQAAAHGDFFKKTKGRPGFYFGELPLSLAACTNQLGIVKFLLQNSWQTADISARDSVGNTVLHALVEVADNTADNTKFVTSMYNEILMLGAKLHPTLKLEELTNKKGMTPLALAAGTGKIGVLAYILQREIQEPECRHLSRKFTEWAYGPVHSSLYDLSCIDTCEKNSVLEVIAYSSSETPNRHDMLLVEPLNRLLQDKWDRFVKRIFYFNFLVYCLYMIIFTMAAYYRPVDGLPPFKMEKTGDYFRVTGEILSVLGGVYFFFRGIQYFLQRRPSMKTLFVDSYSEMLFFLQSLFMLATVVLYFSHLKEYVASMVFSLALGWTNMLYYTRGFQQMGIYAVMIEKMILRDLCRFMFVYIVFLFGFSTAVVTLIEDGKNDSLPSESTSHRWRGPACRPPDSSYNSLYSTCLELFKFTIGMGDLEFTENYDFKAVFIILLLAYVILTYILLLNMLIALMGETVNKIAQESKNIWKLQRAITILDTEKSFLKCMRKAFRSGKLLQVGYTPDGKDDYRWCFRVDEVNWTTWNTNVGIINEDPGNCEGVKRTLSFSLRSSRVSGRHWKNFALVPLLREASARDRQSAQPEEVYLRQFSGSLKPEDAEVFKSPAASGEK
Chain of human TRPV3 (Q8NET8 whole entry): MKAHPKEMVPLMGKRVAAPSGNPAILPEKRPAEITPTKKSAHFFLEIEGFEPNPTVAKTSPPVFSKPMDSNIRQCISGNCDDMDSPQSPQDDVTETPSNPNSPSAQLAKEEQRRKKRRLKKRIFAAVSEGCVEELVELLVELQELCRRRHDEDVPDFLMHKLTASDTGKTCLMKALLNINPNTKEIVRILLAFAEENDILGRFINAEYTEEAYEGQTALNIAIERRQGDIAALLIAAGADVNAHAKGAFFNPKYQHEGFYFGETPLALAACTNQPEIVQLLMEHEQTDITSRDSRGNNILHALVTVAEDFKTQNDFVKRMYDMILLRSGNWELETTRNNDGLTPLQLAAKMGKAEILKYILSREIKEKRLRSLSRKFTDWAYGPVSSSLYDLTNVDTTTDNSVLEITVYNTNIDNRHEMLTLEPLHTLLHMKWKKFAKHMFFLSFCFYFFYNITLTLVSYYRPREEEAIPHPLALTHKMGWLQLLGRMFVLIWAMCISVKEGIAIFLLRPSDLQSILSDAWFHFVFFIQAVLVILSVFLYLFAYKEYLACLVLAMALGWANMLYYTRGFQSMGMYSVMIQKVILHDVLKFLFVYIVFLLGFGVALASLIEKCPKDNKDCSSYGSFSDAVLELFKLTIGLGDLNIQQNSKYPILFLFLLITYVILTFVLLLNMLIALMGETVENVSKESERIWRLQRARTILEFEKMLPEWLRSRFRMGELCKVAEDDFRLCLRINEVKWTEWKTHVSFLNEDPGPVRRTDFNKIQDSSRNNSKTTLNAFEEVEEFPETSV

IC50 (human TRPV3) [µM]	IC50 (human TRPA1) [µM]	IC50 (human TRPV1) [µM]	IC50 (human TRPV4) [µM]	IC50 (human TRPM8) [µM]	SMILES	pulmonary eosinophilia [1]	neutrophils in BALF [2]	total leukocytes in BALF [2]
> 1	0.00674	> 10	0.162	> 10	Cn1c(=O)c2c(CC(=O)Nc3nc(-c4ccc(C(F)(F)F)c(F)c4)cs3)nsc2n(C)c1=O [Compound 81]			
> 1	0.00804	> 10	0.172	> 10	Cn1c(=O)c2c(CC(=O)Nc3nc(-c4ccc(OC(F)(F)F)c(F)c4)cs3)nsc2n(C)c1=O [Compound 82]			
> 1	0.0044	> 10	0.237	> 10	Cn1c(=O)c2c(CC(=O)Nc3nc(-c4cc(F)cc(C(F)(F)F)c4)cs3)nsc2n(C)c1=O [Compound 83]			
> 1	0.00892	> 10	0.62	> 10	Cn1c(=O)c2c(CC(=O)Nc3nc(-c4ccc(C(F)(F)F)c(F)c4)cs3)ccnc2n(C)c1=O [Compound 85]			
> 10	0.0193	> 10	2.01	> 10	Cn1c(=O)c2c(CC(=O)Nc3nc(-c4ccc(F)c(C(F)(F)F)c4F)cs3)ccnc2n(C)c1=O [Compound 87]			
> 1	0.0115	> 10	0.158	> 10	Cn1c(=O)c2c(CC(=O)Nc3nc(-c4ccc(OC(F)(F)F)c(F)c4)cs3)ccnc2n(C)c1=O [Compound 88]			
> 10		> 10	> 10	> 10	COCCCOc1cccc(C2NC(=S)NC3=C2C(=O)c2ccccc23)c1 (centres unmarked) [Compound 90]	significant inhibition	significant inhibition	significant inhibition

SMILES	IC50 (human TRPV3) [µM]	IC50 (human TRPA1) [µM]	IC50 (human TRPV1) [µM]	IC50 (human TRPV4) [µM]	IC50 (human TRPM8) [µM]	pulmonary eosinophilia [1]	neutrophils in BALF [2]	total leukocytes in BALF [2]
Cn1c(=O)c2c(CC(=O)Nc3nc(-c4cc(F)c(OCC(F)(F)F)c(F)c4)cs3)ccnc2n(C)c1=O [Compound 86]	> 10	0.00691	> 10	> 1	> 10			
Cn1c(=O)c2c(CC(=O)Nc3nc(-c4ccc(F)c(C(F)(F)F)c4F)cs3)onc2n(C)c1=O [Compound 92]	> 1		> 10	> 1	> 10	significant inhibition		
